Where a name gives a salt, the structure may show the parent alone. Read-outs that look alike come from different tables or passages of the source.
Experiments:
Assay type in all cases: in vivo
[1] = tested on: Male mice of ddY strain; test: Test 1 Anti-nicotine activity (inhibition of nicotine-induced convulsive death); details: 200 mg/kg po, nicotine 2 mg/kg iv after 1 h, observed 1 h; for responders at 200 mg/kg: Mus musculus
Method: Male mice of ddY strain, weighing 28 to 33 g, were used in groups of eight or twelve. The test compounds were dissolved in distilled water and administered orally in a dose of 200 mg/kg. After an hour, nicotine was intravenously administered in a dose of 2 mg/kg.

[2] = Test 5 Acute toxicity (LD50, method of Behrens and Kärbar); details: mouse, in vivo, po, mice, observed for 7 days
Method: Male mice of ddY strain, weighing 25 to 30 g, were used in groups of five. The test compounds were dissolved in distilled water and administered orally in various doses. […] Then, the LDso was calculated according to the method of Behrens and Kärbar.

[3] = tested on: Male mice of ddY strain; test: Test 3 Muscle relaxant activity (traction test, method of Courvoisier et al.); details: 15 minutes after administration, groups of ten
Method: Male mice of ddY strain, weighing 30 to 37 g, were used in groups of ten. The test compounds were dissolved in physiological saline and administered intraperitoneally in a dose of 50 or 75 mg/kg. […] This method involves a traction test in which the animal is hung by its forelimbs on a horizontal metal rod (2 mm in diameter) placed 20 cm above the floor and examined as to whether it can put its hindlimb on the rod or not.
Specifically, 15 minutes after administration of a test compound, the mouse was hung on the rod by its forelimbs. […] It had been confirmed in preliminary tests that, under normal conditions, all the mice could put their hindlimb on the rod within 5 seconds.

[4] = tested on: Male mice of ddY strain; test: Test 2 Anti-tremorine activity (inhibition of tremorine-induced tremor); details: for responders at 50 mg/kg: Mus musculus, po, read-out: Inhibition of tremor (%)
Method: Male mice of ddY strain, weighing 28 to 32 g, were used in groups of eight or ten. The test compounds were dissolved in distilled water and administered orally in a dose of 50 mg/kg. After 30 minutes, tremorine dihydrochloride was subcutaneously administered in a dose of 20 mg/kg. Then, the occurrence of tremor was observed after the lapse of 30 and 60 minutes.

[5] = po, 1 h, Table-2a, 8 animals used
[6] = 0.5 h, Table-3a, 50 mg/kg po, After 30 min. from tremorine 20 mg/kg sc, 8 animals used
[7] = 1 h, Table-3a, 50 mg/kg po, After 60 min. from tremorine 20 mg/kg sc, 8 animals used
[8] = 0.5 h, Table-3b, 50 mg/kg po, After 30 min., 10 animals used
[9] = 1 h, Table-3b, 50 mg/kg po, After 60 min., 10 animals used
[10] = Table-3b, 50 mg/kg po, After 30 min., 10 animals used
[11] = Table-3b, 50 mg/kg po, After 60 min., 10 animals used
[12] = po, 1 h, Table-2c, 12 animals used
[13] = 0.5 h, Table-3d, 50 mg/kg po, After 30 min., 10 animals used
[14] = 1 h, Table-3d, 50 mg/kg po, After 60 min., 10 animals used

SMILES	LD50 at 168 h ([2]; Table-5a) [mg/kg]	responders at 200 mg/kg [1, 5] [%]	Number of surviving animals ([1]; Table-2a, 8 animals used)	Number of animals exhibiting muscle relaxation ([3]; Table-4a, 50 mg/kg ip)	responders at 50 mg/kg [4, 6] [%]	responders at 50 mg/kg [4, 7] [%]	responders at 50 mg/kg [4, 8] [%]	responders at 50 mg/kg [4, 9] [%]	other results
CC(CN1CCCC1)C(=O)c1ccc2c(c1)OCO2 (stereo not drawn) [Example 60, 2-Methyl-1-(3,4-methylenedioxyphenyl)-3-(1-pyrrolidi-nyl)-1-propanone hydrochloride]	–	–	–	–	–	–	–	–	responders at 200 mg/kg ([1]; Table-2b, 12 animals used): 58.3%; Number of surviving animals ([1]; Table-2b, 12 animals used): 7
CC(CN1CCCC1)C(=O)c1ccc(C2CC2)cc1.Cl (stereo not drawn) [Example 8, 1-(4-Cyclopropylphenyl)-2-methyl-3-(1-pyrrolidinyl)-1-propanone hydrochloride]	505	62.5	5	7	100	87.5	–	–	–
CC(C)C(CN1CCCCC1)C(=O)c1ccc(C2CC2)cc1.Cl (stereo not drawn) [Example 5, 1-(4-Cyclopropylphenyl)-2-isopropyl-3-piperidino-1-propanone hydrochloride]	–	–	–	–	–	–	100	100	Number of animals exhibiting no tremor [4, 10]: 10; Number of animals exhibiting no tremor [4, 11]: 10
CCC(CN1CCCCC1)C(=O)c1ccc(C2CC2)cc1.Cl (stereo not drawn) [Example 11, 1-(4-Cyclopropylphenyl)-2-ethyl-3-piperidino-1-propanone hydrochloride]	–	37.5	3	–	100	100	–	–	Number of animals exhibiting no tremor ([4]; Table-3a, 50 mg/kg po, After 30 min. from tremorine 20 mg/kg sc, 8 animals used): 8; Number of animals exhibiting no tremor ([4]; Table-3a, 50 mg/kg po, After 60 min. from tremorine 20 mg/kg sc, 8 animals used): 8
CC(CN1CCCCCC1)C(=O)c1ccc2c(c1)OCO2.Cl (stereo not drawn) [Example 61, 2-Methyl-1-(3,4-methylenedioxyphenyl)-3-(hexahydro-1H-azepin-1-yl)-1-propanone hydrochloride]	–	–	–	–	–	–	–	–	responders at 200 mg/kg ([1]; Table-2b, 12 animals used): 58.3%; Number of surviving animals ([1]; Table-2b, 12 animals used): 7
CC(CN1CCCCCC1)C(=O)c1ccc(C2CC2)cc1.Cl (stereo not drawn) [Example 9, 1-(4-Cyclopropylphenyl)-2-methyl-3-(hexahydro-1H-azepin-1-yl)-1-propanone hydrochloride]	655	75	6	7	100	87.5	–	–	–
CCc1ccc(C(=O)C(C)CN2CCCCC2)cc1 (stereo not drawn) [Eperisone HCl, Eperisone, reference compound]	595	50	–	2	87.5	0	80	10	LD50 at 168 h ([2]; Table-5b): 475 mg/kg; LD50 at 168 h ([2]; Table-5c): 565 mg/kg; responders at 200 mg/kg ([1]; po, 1 h, Table-2b, 12 animals used): 50%; responders at 200 mg/kg [1, 12]: 50%; Number of animals exhibiting muscle relaxation ([3]; Table-4d, 75 mg/kg ip): 2; responders at 50 mg/kg [4, 13]: 80%; responders at 50 mg/kg [4, 14]: 20%
CCC(CN1CCCCCC1)C(=O)c1ccc2c(c1)CCO2.Cl (stereo not drawn) [Example 96, 1-(2,3-Dihydro-5-benzofuranyl)-2-ethyl-3-(hexa-hydro-1H-azepin-1-yl)-1-propanone hydrochloride]	–	–	–	–	–	–	–	–	responders at 200 mg/kg [1, 12]: 41.7%; Number of surviving animals ([1]; Table-2c, 12 animals used): 5; responders at 50 mg/kg [4, 13]: 100%; responders at 50 mg/kg [4, 14]: 100%; Number of animals exhibiting no tremor ([4]; Table-3d, 50 mg/kg po, After 30 min., 10 animals used): 10; Number of animals exhibiting no tremor ([4]; Table-3d, 50 mg/kg po, After 60 min., 10 animals used): 10
Cl.O=C(c1ccc(C2CC2)cc1)C(CN1CCCCC1)C1CCCC1 (stereo not drawn) [Example 37, 2-Cyclopentyl-1-(4-cyclopropylphenyl)-3-piperidino-1-propanone hydrochloride]	–	–	–	–	–	–	80	80	Number of animals exhibiting no tremor [4, 10]: 8; Number of animals exhibiting no tremor [4, 11]: 8
CCCC(CN1CCCC1)C(=O)c1ccc2c(c1)CCO2.Cl (stereo not drawn) [Example 98, 1-(2,3-Dihydro-5-benzofuranyl)-2-n-propyl-3-(1-pyrrolidinyl)-1-propanone hydrochloride]	–	–	–	–	–	–	–	–	responders at 200 mg/kg ([1]; Table-2c, 12 animals used): 0%; Number of surviving animals ([1]; Table-2c, 12 animals used): 0; responders at 50 mg/kg ([4]; 0.5 h): 100%; responders at 50 mg/kg ([4]; 1 h): 90%
